Reference: patent publication US20240150423A1, “GLP-1 ANALOGUE-MODIFIED DIMERS WITH DIFFERENT CONFIGURATIONS, PREPARATION METHOD THEREOF, AND APPLICATION THEREOF IN TREATMENT OF TYPE II DIABETES” (Nanjing Finepeptide Biopharmaceutical Co.,Ltd, priority 2019, published 2024)
Non-standard residues stand in square brackets, D forms with d. No end group written: not given here. βAla = NCCC(=O)O

Key:
[1] = T2D model treatment: body weight and organ weights; format: in vivo, C57B16/J mice; conditions: 2G1 study, 35 days
Description: C57B16/J mice were placed in an SPF-level environment with a standard diet. All experimental operations were performed in accordance with the guidelines of the ethics and uses of experimental animals. […] The NaCl-PB group served as blank control and the model control group served as the T2D model control. They were injected with NaCl-PB solution. The T2D model group was fed with 60 kcal % high-fat diet (D12492, Changzhou SYSE Bio-tech. Co., Ltd., China) until the end of the experiment. Meanwhile the blank control group maintained standard diet. […] These groups were subjected to a 35-day treatment study on the basis of the high-fat diet. • 1. […] The monomeric peptides were dissolved into a saline solution (pH 6.5) for injection. • 2. […] The models were measured blood glucose at the tail and weight weighted every morning at 9 am. […] In the T2D treatment study, all T2D model mice were injected subcutaneously at the back hip in 100 μl per mouse within 30 min. The blood glucose of the experimental mice was measured every five days and the whole measurement was completed within 40 min. […] No. 8-9695-03-201-1, Novo Nordisk company, Switzerland) until the end of the 35-day experiment. • 3.

Normal Kunming (KM) mice = test: multiple OGTT (mOGTT): hypoglycemic duration after a single administration; format: in vivo; conditions: monomeric peptides, single injection at the same dose (1.126 nmol), subcutaneous
Method in brief: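 Normal Kunming mice given a single dose, then oral glucose challenges; tail-blood glucose read by meter at 0, 10, 20, 40, 60 and 120 min. Duration scored as hypoglycemic period until group mean glucose exceeded the NaCl control twice.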

[2] = high dose 3.378 nmol/100 μL once a day
[3] = low dose 0.375 nmol/100 μL once a day
[4] = medium dose and Liraglutide group 1.126 nmol/100 μL once a day

Compound: CCCCCCCCCCCCCCCC(=O)N[C@@H](CCC(=O)NCCCC[C@H](NC(=O)[C@H](C)NC(=O)[C@H](C)NC(=O)[C@H](CCC(N)=O)NC(=O)CNC(=O)[C@H](CCC(=O)O)NC(=O)[C@H](CC(C)C)NC(=O)[C@H](Cc1ccc(O)cc1)NC(=O)[C@H](CO)NC(=O)[C@H](CO)NC(=O)[C@@H](NC(=O)[C@H](CC(=O)O)NC(=O)[C@H](CO)NC(=O)[C@@H](NC(=O)[C@H](Cc1ccccc1)NC(=O)[C@@H](NC(=O)CNC(=O)[C@H](CCC(=O)O)NC(=O)[C@H](C)NC(=O)[C@@H](N)Cc1c[nH]cn1)[C@@H](C)O)[C@@H](C)O)C(C)C)C(=O)N[C@@H](CCC(=O)O)C(=O)N[C@@H](Cc1ccccc1)C(=O)N[C@H](C(=O)N[C@@H](C)C(=O)N[C@@H](Cc1c[nH]c2ccccc12)C(=O)N[C@@H](CC(C)C)C(=O)N[C@H](C(=O)N[C@@H](CCCNC(=N)N)C(=O)NCC(=O)N[C@@H](CCCNC(=N)N)C(=O)NCC(=O)N[C@@H](CSSC[C@H](NC(=O)CNC(=O)[C@H](CCCNC(=N)N)NC(=O)CNC(=O)[C@H](CCCNC(=N)N)NC(=O)[C@@H](NC(=O)[C@H](CC(C)C)NC(=O)[C@H](Cc1c[nH]c2ccccc12)NC(=O)[C@H](C)NC(=O)[C@@H](NC(=O)[C@H](Cc1ccccc1)NC(=O)[C@H](CCC(=O)O)NC(=O)[C@H](CCCCNC(=O)CC[C@H](NC(=O)CCCCCCCCCCCCCCC)C(=O)O)NC(=O)[C@H](C)NC(=O)[C@H](C)NC(=O)[C@H](CCC(N)=O)NC(=O)CNC(=O)[C@H](CCC(=O)O)NC(=O)[C@H](CC(C)C)NC(=O)[C@H](Cc1ccc(O)cc1)NC(=O)[C@H](CO)NC(=O)[C@H](CO)NC(=O)[C@@H](NC(=O)[C@H](CC(=O)O)NC(=O)[C@H](CO)NC(=O)[C@@H](NC(=O)[C@H](Cc1ccccc1)NC(=O)[C@@H](NC(=O)CNC(=O)[C@H](CCC(=O)O)NC(=O)[C@H](C)NC(=O)[C@@H](N)Cc1c[nH]cn1)[C@@H](C)O)[C@@H](C)O)C(C)C)[C@@H](C)CC)C(C)C)C(=O)O)C(=O)O)C(C)C)[C@@H](C)CC)C(=O)O [2G1]
- Weight of organs, Heart [1, 2]: 0.121 ± 0.011a** g
- Weight of organs, Left kidney [1, 2]: 0.166 ± 0.040 g
- Weight of organs, Left testis [1, 2]: 0.086 ± 0.017 e* g
- Weight of organs, Liver [1, 2]: 1.293 ± 0.273 c* g
- Weight of organs, Lung [1, 2]: 0.144 ± 0.019 g
- Weight of organs, Pancreas [1, 2]: 0.145 ± 0.032 c* g
- Weight of organs, Right kidney [1, 2]: 0.175 ± 0.063 g
- Weight of organs, Right testis [1, 2]: 0.096 ± 0.011 g
- Weight of organs, Spleen [1, 2]: 0.095 ± 0.028 c* g
- Weight of organs, adipose tissue [1, 2]: 1.311 ± 0.629 c* g
- Weight of organs, Heart [1, 3]: 0.128 ± 0.023 g
- Weight of organs, Left kidney [1, 3]: 0.156 ± 0.021 g
- Weight of organs, Left testis [1, 3]: 0.094 ± 0.037 g
- Weight of organs, Liver [1, 3]: 1.290 ± 0.163 a*c** g
- Weight of organs, Lung [1, 3]: 0.146 ± 0.010 g
- Weight of organs, Pancreas [1, 3]: 0.129 ± 0.2a**c*** g
- Weight of organs, Right kidney [1, 3]: 0.147 ± 0.018 g
- Weight of organs, Right testis [1, 3]: 0.100 ± 0.021 b* g
- Weight of organs, Spleen [1, 3]: 0.107 ± 0.037 c* g
- Weight of organs, adipose tissue [1, 3]: 1.202 ± 0.406 c** g
- Weight of organs, Heart [1, 4]: 0.114 ± 0.010 a** g
- Weight of organs, Left kidney [1, 4]: 0.157 ± 0.030 g
- Weight of organs, Left testis [1, 4]: 0.100 ± 0.006 b** g
- Weight of organs, Liver [1, 4]: 1.211 ± 0.114 c** g
- Weight of organs, Lung [1, 4]: 0.139 ± 0.020 g
- Weight of organs, Pancreas [1, 4]: 0.155 ± 0.033 c*d* g
- Weight of organs, Right kidney [1, 4]: 0.139 ± 0.029 g
- Weight of organs, Right testis [1, 4]: 0.095 ± 0.011 g
- Weight of organs, Spleen [1, 4]: 0.101 ± 0.026 c* g
- Weight of organs, adipose tissue [1, 4]: 1.263 ± 0.276 c*** g

Compound: His-βAla-Glu-Gly-Thr-Phe-Thr-Cys-Asp-Val-Ser-Ser-Tyr-Leu-Glu-Gly-Gln-Ala-Ala-Lys[N-ϵ-(N-α-oleoyl-L-γ-glutamyl)]-Glu-Phe-Ile-Ala-Trp-Leu-Val-Arg-Gly-Arg-Gly-NH2 (HXEGTFTCDVSSYLEGQAAXEFIAWLVRGRG; beta-amino acid; oleoyl-gamma-Glu on Lys; C-terminal amide; Sequence is synthesized; (2)..(2) Xaa is bAla; (20)..(20) Xaa is 26Lys[N-e-(N-a-oleoyl-L-g-glutamyl)]; (31)..(31) N-terminal) [G8 series 68]
- Hypoglycemic (Normal Kunming (KM) mice): 4 days

Compound: His-βAla-Glu-Gly-Thr-Phe-Thr-Ser-Asp-Val-Cys-Ser-Tyr-Leu-Glu-Gly-Gln-Ala-Ala-Lys-Glu-Phe-Ile-Ala-Trp-Leu-Val-Arg-βAla-Arg-NH2 (H[βAla]EGTFTSDVCSYLEGQAAKEFIAWLVR[βAla]R-NH2; not fully specified; printed as His-βAla-Glu-Gly-Thr-Phe-Thr-Ser-Asp-Val-Cys-Ser-Tyr-Leu-Glu-Gly-Gln-Ala-Ala-Lys-Glu-Phe-Ile-Ala-Trp-Leu-Val-Arg-βAla-Arg-NH2) [G2 series 19]
- Hypoglycemic (Normal Kunming (KM) mice): 3 days

Compound: His-βAla-Glu-Gly-Thr-Phe-Thr-Ser-Asp-Val-Cys-Ser-Tyr-Leu-Glu-Gly-Gln-Ala-Ala-Lys[N-ϵ-(N-α-oleoyl)]-Glu-Phe-Ile-Ala-Trp-Leu-Val-Arg-Gly-Arg-Gly-NH2 (HXEGTFTSDVCSYLEGQAAXEFIAWLVRGRG; β-amino acid; oleoyl on Lys; C-terminal amide; Sequence is synthesized; (2)..(2) Xaa is bAla; (20)..(20) Xaa is 26Lys[N-e-(N-a-oleoyl-L-g-glutamyl)]; (31)..(31) N-terminal) [G4 series 31]
- Hypoglycemic (Normal Kunming (KM) mice): 5 days

Compound: His-βAla-Glu-Gly-Thr-Phe-Thr-Ser-Asp-Val-Cys-Ser-Tyr-Leu-Glu-Gly-Gln-Ala-Ala-Lys[N-ϵ-(N-α-oleoyl-L-γ-glutamyl)]-Glu-Phe-Ile-Ala-Trp-Leu-Val-Arg-Gly-Arg-Gly-NH2 (HXEGTFTSDVCSYLEGQAAXEFIAWLVRGRG; β-amino acid; oleoyl-γ-glutamyl on Lys; C-terminal amide; Sequence is synthesized; (2)..(2) Xaa is bAla; (20)..(20) Xaa is 26Lys[N-e-(N-a-oleoyl-L-g-glutamyl)]; (31)..(31) N-terminal) [G2 series 18]
- Hypoglycemic (Normal Kunming (KM) mice): 5 days

Compound: His-βAla-Glu-Gly-Thr-Phe-Thr-Ser-Asp-Val-Ser-Cys-Tyr-Leu-Glu-Gly-Gln-Ala-Ala-Lys-Glu-Phe-Ile-Ala-Trp-Leu-Val-Arg-βAla-Arg-NH2 (H[βAla]EGTFTSDVSCYLEGQAAKEFIAWLVR[βAla]R-NH2; also: disulfide-linked homodimer via Cys12) [G7 series 55]
- Hypoglycemic (Normal Kunming (KM) mice): 2 days

Compound: His-βAla-Glu-Gly-Thr-Phe-Thr-Ser-Asp-Val-Ser-Cys-Tyr-Leu-Glu-Gly-Gln-Ala-Ala-Lys[N-ϵ-(N-α-Palmitoyl-L-γ-glutamyl)]-Glu-Phe-Ile-Ala-Trp-Leu-Val-Lys[N-ϵ-(N-α-Palmitoyl-L-γ-glutamyl)]-Gly-Arg-Gly-NH2 (HXEGTFTSDVSCYLEGQAAXEFIAWLVXGRG; not fully specified; beta-amino acid; two palmitoyl-gamma-Glu on Lys; amide; Sequence is synthesized; (2)..(2) Xaa is bAla; (20)..(20) Xaa is 26Lys[N-e-(N-a-palmitoyl-L-g-glutamyl)]; (28)..(28) Xaa is 26Lys[N-e-(N-a-palmitoyl-L-g-glutamyl)]; (31)..(31) N-terminal) [G5 series 44]
- Hypoglycemic (Normal Kunming (KM) mice): 2 days

Compound: His-βAla-Glu-Gly-Thr-Phe-Thr-Ser-Asp-Val-Ser-Cys-Tyr-Leu-Glu-Gly-Gln-Ala-Ala-Lys[N-ϵ-(N-α-oleoyl)]-Glu-Phe-Ile-Ala-Trp-Leu-Val-Arg-Gly-Arg-Gly-NH2 (HXEGTFTSDVSCYLEGQAAXEFIAWLVRGRG; beta-amino acid; oleoyl on Lys side chain; C-terminal amide; Sequence is synthesized; (2)..(2) Xaa is bAla; (20)..(20) Xaa is 26Lys[N-e-(N-a-oleoyl-L-g-glutamyl)]; (31)..(31) N-terminal) [G4 series 39]
- Hypoglycemic (Normal Kunming (KM) mice): 5 days

Compound: His-βAla-Glu-Gly-Thr-Phe-Thr-Ser-Asp-Val-Ser-Cys-Tyr-Leu-Glu-Gly-Gln-Ala-Ala-Lys[N-ϵ-(N-α-oleoyl-L-γ-glutamy)]-Glu-Phe-Ile-Ala-Trp-Leu-Val-Arg-Gly-Arg-Gly-NH2 (HXEGTFTSDVSCYLEGQAAXEFIAWLVRGRG; beta-amino acid; oleoyl-gamma-Glu on Lys; C-terminal amide; Sequence is synthesized; (2)..(2) Xaa is bAla; (20)..(20) Xaa is 26Lys[N-e-(N-a-oleoyl-L-g-glutamyl)]; (31)..(31) N-terminal) [G6 series 50]
- Hypoglycemic (Normal Kunming (KM) mice): 4 days
